Patent US7419812B2, “Sequences encoding PhzO and methods” (The United States of America as represented by the …, priority 2000, dated 2008)
Several values for one entry are separate records, joined by “and”; a condition that tells them apart may be missing. Identical values can stand only once.

Test: Spontaneous conversion (decarboxylation) of synthetic 2-OH-PCA to 2-OH-PHZ in phosphate buffer, RP-HPLC
Type: physicochemical
Protocol: Since phenazine-producing Pseudomonas spp. often produce mixtures of phenazine compounds, a generalized HPLC protocol for detection of these metabolites was developed. The protocol utilized a NOVA-PAK C18 reverse-phase Radial-PAK cartridge (4 μm, 8×100 mm) (Waters Corp., Milford, Mass.), and solvent conditions consisting of a 2-min initial wash with 35% ACN/0.1% TFA in H2O followed by a 25-min linear gradient to 100% ACN/0.1% TFA at a flow rate of 1.0 ml/min. The Waters HPLC system included a 710B WISP, 510 pumps, and a 680 automated gradient controller with a 990 photodiode array detector (Waters Corp.). Phenazine compounds were identified by retention time and ultraviolet spectrum. Standards included compounds purified from well-characterized strains (Mavrodi et al, 1998, supra; Pierson and Thomashow, 1992, supra) and chemically-synthesized compounds (PCA, 2-OH-PCA, and 2-OH-PHZ) obtained from Colour Your Enzyme (Bath, Ontario, Canada). […] 2-OHPHZ, which is formed by spontaneous decarboxylation of 2-OH-PCA (see below), was therefore used as an indicator of 2-hydroxyphenazine synthesis and when necessary, the presence of 2-OH-PCA in samples containing PCA was determined by peak purity and spectral analyses using the Waters 991 photodiode array (Waters Corp.).
Expression and Functional Analysis of PhzO. The phzO gene from P. aureofaciens 30-84 was cloned in pUCP26 under the control of the lac promoter and expressed in E. coli JM109. Cells from induced cultures expressing PhzO produced a unique band of approximately 55 kDa on SDS-PAGE gels, in good agreement with the size predicted by nucleotide sequence analysis. Induced cultures of E. coli expressing PhzO converted PCA (0.3 or 0.5 mg/ml in 5% NaHCO3) to 2-OH-PCA and 2-OH-PHZ within 3 h, whereas no such conversion occurred in control cultures harboring only pUCP26 (FIG. 2). […] To determine whether PhzO is responsible for this reaction in P. aureofaciens 30-84, a tetracycline resistance gene was inserted into phzO and introduced in the genome by homologous recombination. […]

Which “2-OH-PHZ as share of the total phenazine present” value (0.1 M sodium phosphate buffer pH 4.0, 18 h) does the source give for `O=C(O)c1c(O)ccc2nc3ccccc3nc12` [2-OH-PCA, 2-hydroxyphenazine-1-carboxylic acid] here?
Its value is 0.2%.

And the “2-OH-PCA initially present converted to 2-OH-PHZ” value (0.1 M sodium phosphate buffer pH 6.0, 18 h)?
Its value is 33% and 33.3%.

What about the “2-OH-PCA initially present converted to 2-OH-PHZ” value (0.1 M sodium phosphate buffer pH 8.0, 18 h) of the same molecule?
The value was 62% and 64%.
